Data from patent publication US5776720A, “Assay reagent” (priority 1995, dated 1998).
Structures can show the parent of a compound that is named as a salt. Numbered stars: 1 amine (or outer) side, 2 acyl side, 3 side chain; on linkers, the order of the positions; unused ones are H or OH. Bridge positions count the residues as written; N and C are the ends. Peptide text beside a SMILES is read from it. I, II: the chains in the order shown. Rhodamine110 = O=C1OC2(c3ccc(N[*:1])cc3Oc3cc(N[*:2])ccc32)c2ccccc21

Tests used:
[1] = tested on: granulocytes; assay: Normal leukocyte enzyme activity (Table 3A), granulocytes; format: cell-based, human; design: unit not given here; settings: normal donors
Text: (§1) The measured fluorescence intensity can be converted from mean channel fluorescence (in peak or integrated mode) to MESF (molecules of equivalent soluble fluorochrome, Flow Cytometry Standards Corp. , San Juan, Puerto Rico) or International Units of hydrolysis per cell. A normal range of enzyme activity is established by assaying males and females in sufficient quantity to characterize the population levels statistically.
(§2) A normal in house adult donor pool was drawn, recording sex and determining that no known disease state was present at the time of sample draw. Criteria for rejecting samples included patients under medication, patients with infection or inflammation of any type, colds and flu as well as any known medical illness such as cancer, heart ailment and high blood pressure. A donor list of 75 patients has been developed and a mean and 2 sd range established. A subgroup of "super normals" was developed from this list by examining the 75 patients to determine which group falls closest to the mean for all enzymes in all cell types tested. These patients were used as the "wellness index" or best group of "normalcy" patients. If a study required the use of children or newborns then this same format was used to develop a data base for these age groups.

[2] = tested on: granulocyte; assay: Peptidases to distinguish leukemia from non-leukemia (Table 6C), grans; format: cell-based, human; settings: N192 NORMAL
Text: Artificial intelligence was used to analyze data of cellular enzyme functions, and determine normal and disease states. Peptidases were used to distinguish leukemia from non-leukemia (output pattern). For input patterns lymphocyte and granulocyte cell types were used with aminopeptidases, cathepsins and dipeptidylpeptidase enzyme activities. In this Example, illustrated in Tables 6A-6C, three normals and three leukemia patients were used as known output patterns for the neural network to learn (in practice, the larger the learning set the more accurate unknown prediction will be). Unknowns were then presented to the learned algorithm as shown in the test case examples. Clinical diagnosis was confirmed by physicians. The trained neural network was able to correctly classify the leukemia from the non-leukemia.

[3] = tested on: lymphocytes; assay: Normal leukocyte enzyme activity (Table 3A), lymphocytes; format: cell-based, human; design: unit not given here; settings: normal donors
Text: as §1, §2

[4] = native free fluorescence; format: physicochemical
Text: Assays for peptidases using assay compounds generate fluorescence generally in the range of 10^-5 to 10^-6 Molar free rhodamine 110. Therefore, it is preferred that the free rhodamine 110 and blocked peptide impurities in the assay reagent should be removed to a concentration of less than the fluorescence generated by about 1×10^-6 M and more preferably less than the fluorescence generated by about 10^-7 Molar free indicator group. This amounts to a 100,000 photon count using rhodamine 110 as a standard at 10^-7 -10^-8 M, preferably 5×10^-8 M in a 1 cm path length cuvette when measured over 10 min. on a photon counting spectrofluorometer manufactured by the SLM Company of Chicago, Ill. This corresponds to a use level on the flow cytometer where no cellular false positive can be detected for a 10 minute period at the highest sensitivity setting. […] The presence of impurities causes a decrease in the storage stability of the compound, resulting in an increased autohydrolysis which leads to increased background fluorescence. A compound should be free of impurities such that when the compound (or reagent containing the compound) is stored at 4° C. for 30 days, preferably 90 days, more preferably 180 days, most preferably one year, the background fluorescence increases less than 10% , preferably less than 5% , most preferably less than 1% over these time periods, respectively. […]

[5] = autohydrolysis rate; format: physicochemical; settings: 37° C., 1 cm path length
Method: A reaction run using the same data collection window without the enzyme source will determine auto-hydrolysis of the substrate and therefore the potential for negative cells to absorb the dye non-specifically resulting in false positive.
(§3) The acetate and tartrate salts thus prepared have the following characteristics, respectively: native free fluorescence, 63,000 and 61,000 photons; autohydrolysis rate when measured at 37° C. using a 1 cm path length, -5.56 and -3.8 change in photons per second; and enzymatic reaction rate of cathepsin B at 37° C., +128 and +138 change in photons per second.

[6] = tested on: cathepsin B; assay: enzymatic reaction rate of cathepsin B; format: biochemical; settings: 37° C.
Method: as §3

[7] = tested on: enzyme; assay: modulator effect on sensitivity of substituted rhodamine 110 substrates; format: cell-based; settings: 1 mM
Text: Modulators are components used to […] the sensitivity of the enzyme for the leaving group. The modulators speed up or slow down the activity of an enzyme by changing the active site. […] Preferred modulators for particular enzymes are included in Table 1.

[8] = tested on: erythrocytes; assay: Normal erythrocyte enzyme activity (Table 3B); format: cell-based, human; settings: normal donors
Method: A sample, consisting of whole blood (in EDTA, Heparin or ACD) or dissociated tissue or body fluids (synovial fluid) or cell culture media is obtained and stored in a manner so as not to decrease viability. The sample is washed sufficiently to remove plasma, media, body fluid, debris and extra-cellular enzymes. The wash media consists of a physiologically balanced buffered salt solution. The washed cells are incubated at 37° C. 50 μL of sample and 25 μL of substrate media are mixed together and allowed to incubate at 37° C. for a predetermined amount of time. At the end of the incubation period, the sample is then measured for fluorescence.
as §2

[9] = tested on: monocytes; assay: Normal leukocyte enzyme activity (Table 3A), monocytes; format: cell-based, human; design: unit not given here; settings: normal donors
Text: as §1, §2

[10] = tested on: GRANS; assay: Aberrant enzyme activities in febrile children (Table 7), grans; format: cell-based, human
[11] = tested on: MONOS; assay: Aberrant enzyme activities in febrile children (Table 7), monos; format: cell-based, human

For `NCC(=O)Nc1ccc2c(c1)Oc1cc(NC(=O)CN)ccc1C21OC(=O)c2ccccc21` [GLY, (Gly)2 Rho 110], the “NORMAL LEUKOCYTE ENZYME ACTIVITY, GRANS Mean” value [1] was 29.48, the enzyme activity [2] was 48.67 and the “NORMAL LEUKOCYTE ENZYME ACTIVITY, LYMPHS Mean” value [3] was 18.18.
For `CC(C)C[C@H](N)C(=O)NCC(=O)Nc1ccc2c(c1)Oc1cc(NC(=O)CNC(=O)[C@@H](N)CC(C)C)ccc1C21OC(=O)c2ccccc21` [acetate, (H-LEU-GLY)2 Rhodamine 110 Acetate], the native free fluorescence [4] was 63,000 photons, the autohydrolysis rate [5] was -5.56 change in photons per second and the “enzymatic reaction rate of cathepsin B” value [6] was “+128 change in photons per second”.
For `CC(C)C[C@H](N)C(=O)NCC(=O)Nc1ccc2c(c1)Oc1cc(NC(=O)CNC(=O)[C@@H](N)CC(C)C)ccc1C21OC(=O)c2ccccc21` [tartrate, (H-LEU-GLY)2 Rhodamine 110 Tartrate], the autohydrolysis rate [5] was -3.8 change in photons per second and the “enzymatic reaction rate of cathepsin B” value [6] was “+138 change in photons per second”.
For `O[C@H](CS)[C@@H](O)CS` [dithioerythritol (DTE), dithioerythritol], the “effect on sensitivity of leaving group for enzyme” value ([7]; substrates with Ala-Gly and Leu-Gly) was “does not change the sensitivity” and the “effect on sensitivity of rhodamine 110 substrates” value ([7]; substrates with Pro, Gly, Gln-Ser, Val-Lys-Val-Lys, Ala-Ala, Ala-Ala-Ala-Ala) was “decreases the sensitivity”.
In the case of `CC(C)C[C@H](NC(=O)CNC(=O)[C@@H](N)CC(C)C)C(=O)NCC(=O)Nc1ccc2c(c1)Oc1cc(NC(=O)CNC(=O)[C@H](CC(C)C)NC(=O)CNC(=O)[C@@H](N)CC(C)C)ccc1C21OC(=O)c2ccccc21` [LGLG, (H--L--Leu--Gly--Leu--Gly)2 Rho 110.2TFA] (I: H-LGLG / II: H-LGLG; linker I:C-II:C via Rhodamine110), the “NORMAL LEUKOCYTE ENZYME ACTIVITY, GRANS Mean” value [1] is reported as 4.08, the “NORMAL E[…] ACTIVITY MEAN” value [8] is reported as 0.122 and the “NORMAL LEUKOCYTE ENZYME ACTIVITY, LYMPHS Mean” value [3] is reported as 1.42. For the same molecule, the “NORMAL LEUKOCYTE ENZYME ACTIVITY, MONOS Mean” value [9] was 11.36.
With dichlorofluorescein the aberrant enzyme activity ([10]; P89 Viral Stomatitis) was “+ (>0.25 Increase over normal range)”, the aberrant enzyme activity ([10]; P92 Adenitis) was “+ (>0.25 Increase over normal range)” and the aberrant enzyme activity ([10]; P95 Viral Syndrome) was “+ (>0.25 Increase over normal range)”. The aberrant enzyme activity ([10]; P96 Viral Syndrome) was “+ (>0.25 Increase over normal range)”, the aberrant enzyme activity ([10]; P97 Pyelonephritis) was “+ (>0.25 Increase over normal range)” and the aberrant enzyme activity ([10]; P101 Fever-Unknown Origin) was “+ (>0.25 Increase over normal range)”. For the same molecule, the aberrant enzyme activity ([10]; P103 Viral Syndrome) was “+ (>0.25 Increase over normal range)”, the “NORMAL E[…] ACTIVITY MEAN” value [8] was 0.268 and the aberrant enzyme activity ([11]; P89 Viral Stomatitis) was “+ (>0.25 Increase over normal range)”. The aberrant enzyme activity ([11]; P92 Adenitis) was “+ (>0.25 Increase over normal range)”, the aberrant enzyme activity ([11]; P95 Viral Syndrome) was “+ (>0.25 Increase over normal range)” and the aberrant enzyme activity ([11]; P96 Viral Syndrome) was “+ (>0.25 Increase over normal range)”. For the same molecule, the aberrant enzyme activity ([11]; P97 Pyelonephritis) was “+ (>0.25 Increase over normal range)”, the aberrant enzyme activity ([11]; P101 Fever-Unknown Origin) was “+ (>0.25 Increase over normal range)” and the aberrant enzyme activity ([11]; P103 Viral Syndrome) was “°”.
